Test results from US20250319015A1, “VACCINIUM MACROCARPON EXTRACT AND ANTI-AGEING COSMETIC EFFECTS THEREOF” (SOCIETE INDUSTRIELLE LIMOUSINE D'APPLICATION BIOLOGIQUE, priority 2021, published 2025).
Read-outs that look alike come from different tables or passages of the source.

Columns and labels:
[1] = test system: hyaluronic acid; assay: Hyaluronic acid synthesis by ELISA on older human fibroblasts; format: cell-based; settings: older fibroblasts; 1 μM Retinol
Experimental: The older human fibroblasts are seeded and incubated at 37° C. in an atmosphere containing 5% CO2.
(§2) The cells are then incubated at 37° C. in an atmosphere containing 5% CO2 for 48 hours.

[2] = test system: claudin-1; assay: Claudin-1 synthesis in reconstructed epidermises (immunohistofluorescence); format: cell-based, human; settings: older reconstructed epidermises, 10 μM Retinol
Experimental: (§1) This study was carried out on normal and older reconstructed epidermises. The epidermal construction was evaluated using a Hematoxylin Eosin (HE) stain and the synthesis of the barrier function markers by immunohistofluorescence. The procedure of the study is described below. […] The epidermides are recovered, fixed, dehydrated, and enclosed in paraffin. Sections (4 μm) are then made using a microtome. […] Viewing is performed using a microscope coupled to an image analysis system. The thickness of the epidermises obtained was measured on the histological sections produced. The rate of the various synthesized markers is proportional to the intensity of green fluorescence present on the reconstructed epidermises. A quantitative analysis of the images was carried out using an image analysis script. The results are expressed in arbitrary units (AU).

[3] = test system: healthy Caucasian female volunteers; assay: Complexion radiance by visual scoring by experts, Caucasian volunteers; format: in vivo, human; settings: Retinol 0.075%
Experimental: The complexion radiance is evaluated by experts using the following parameters: radiance, […], olive color and eye fatigue.

[4] = test system: healthy Caucasian female volunteers; assay: Anti-wrinkle effect by light projection (crow's feet), Caucasian volunteers; format: in vivo, human; settings: Retinol 0.075%
Experimental: The anti-wrinkle effect is evaluated according to the roughness parameter Sa, evaluated on the crow's feet zone by light projection and on the negative volume, evaluated on the same zone.

[5] = test system: healthy Caucasian female volunteers; settings: retinol 0.075%, 18 volunteers
Experimental: (§3) This study was carried out on 3 groups of 18 healthy, female volunteers, aged 45 to 66 years and presenting with crow's feet wrinkles. Each of the volunteers applied two of the three formulae to half the face twice-daily in a randomized manner for 42 days.

[6] = test system: collagen I; assay: Collagen I network by immunocytology on older human fibroblasts; format: cell-based; settings: 0.1 μM Retinol
Experimental: Immunocytological labeling of collagen I is carried out by fixing and permeabilization using primary antibody I and secondary antibody coupled to a fluorophore. A quantitative analysis was carried out by reading the fluorescence of the various conditions tested using a fluorometer. The intensity of the collagen I network is proportional to the intensity of green fluorescence present. The results are expressed in fluorescence value (AU).

[7] = test system: MMP-1; assay: MMP-1 level by ELISA on older human fibroblasts subjected to UVA; format: cell-based; settings: UVA-irradiated older fibroblasts, 1 μM Retinol
Experimental: The older human fibroblasts are seeded and incubated at 37° C. in an atmosphere containing 5% CO2. The irradiations are carried out using a UV lamp with UVA intensities of 10 J/cm2.
as §2

[8] = test system: healthy Caucasian female volunteers; settings: for Parameter a* (skin redness), change compared to placebo: Retinol 0.075%
Experimental: as §3

[9] = test system: loricrin; assay: Loricrin synthesis in reconstructed epidermises (immunohistofluorescence); format: cell-based, human; settings: older reconstructed epidermises, 10 μM Retinol
Experimental: as §1

[10] = test system: human keratinocytes from older donors (≥60 years); assay: Gene expression by quantitative PCR on older human keratinocytes; format: cell-based; settings: 1 μM Retinol
Experimental: The procedure of the study is described below. The young and older human cells are seeded and incubated at 37° C. […] After several days, the cells are recovered and the total RNA extracted. The RNAs were reverse-transcribed and the complementary DNAs obtained were analyzed by the quantitative PCR technique. The mRNAs of internal reference controls were analyzed in parallel with the mRNAs of the markers involved in the barrier function of the epidermis, in the DEJ and in the dermal matrix. The incorporation of fluorescence is measured continuously using a thermal cycler. The RQ (relative quantification) analysis is performed using software.

Q: Which “Content of hyaluronic acid/control (%)” value [1] does the source give for `CC1=C(/C=C/C(C)=C/C=C/C(C)=C/CO)C(C)(C)CCC1` [Retinol, retinol] here?
A: +8%

Q: And the “Ability to restore claudin-1 synthesis (%)” value [2]?
A: 0%

Q: What about the “Synthesis of claudin-1 (×10^4 AU)” value ([2]; 48 hours) of the same compound?
A: 136 ×10^4 AU

Q: And the “Eye fatigue, change compared to placebo” value ([3]; D 21)?
A: −2%

Q: And the “Olive color, change compared to placebo” value ([3]; D 21)?
A: −11%

Q: And the “Pinkness, change compared to placebo” value ([3]; D 21)?
A: +14%

Q: What about the “Radiance, change compared to placebo” value ([3]; D 21) of the same compound?
A: +6%

Q: What about the “Eye fatigue, change compared to placebo” value ([3]; J42) of the same compound?
A: −10%

Q: What about the “Olive color, change compared to placebo” value ([3]; J42) of the same compound?
A: −10%

Q: And the “Pinkness, change compared to placebo” value ([3]; J42)?
A: +19%

Q: What about the “Radiance, change compared to placebo” value ([3]; J42) of the same compound?
A: +11%

Q: What about the “Negative Volume (crow's feet), change compared to placebo” value (“Negative Volume (crow's feet), change” for short) ([4]; D 21) of the same compound?
A: −12%

Q: And the “Parameter Sa (roughness, crow's feet), change compared to placebo” value ([4]; D 21)?
A: −5%

Q: What about the “Negative Volume (crow's feet), change” value ([4]; D 42) of the same compound?
A: −20%

Q: What about the “Parameter Sa (roughness, crow's feet), change compared to placebo” value ([4]; D 42) of the same compound?
A: −7%

Q: What about the “Negative Volume (crow's feet), change” value ([4]; D 42, listed as retinol) of the same compound?
A: −20%

Q: And the “Incident rate of adverse effects” value [5]?
A: 17%

Q: What about the “Subjects who demonstrated adverse effects likely caused by the study product” value ([5]; 42 days) of the same compound?
A: three

Q: And the “Synthesis of the collagen I network (×10^3 AU)” value [6]?
A: 174 ×10^3 AU

Q: What about the “Ability to reduce the MMP-1 level (%)” value [7] of the same compound?
A: +33%

Q: What about the “MMP-1 content (ng/mg proteins)” value ([7]; 48 hours) of the same compound?
A: 46 ng/mg proteins

Q: What about the “Appearance of skin redness, parameter a* (in words)” value ([8]; 0.075% of retinol, from 21 days of treatment) of the same compound?
A: significantly increases parameter a*

Q: And the “Parameter a* (skin redness), change compared to placebo” value ([8]; D 21)?
A: +5%

Q: What about the “Parameter a* (skin redness), change compared to placebo” value ([8]; D 42) of the same compound?
A: +5%

Q: What about the “Ability to restore loricrin synthesis (%)” value [9] of the same compound?
A: 0%

Q: And the “Synthesis of loricrin (×10^4 AU)” value ([9]; 48 hours)?
A: 177 ×10^4 AU

Q: And the “AQP3: Efficacy of retinol/older control (%)” value [10]?
A: +13%

Q: And the “CD44: Efficacy of retinol/older control (%)” value [10]?
A: +77%

Q: What about the “CLDN1: Efficacy of retinol/older control (%)” value [10] of the same compound?
A: −52%

Q: And the “CXCL8: Efficacy of retinol/older control (%)” value [10]?
A: +189%

Q: What about the “DSG: Efficacy of retinol/older control (%)” value [10] of the same compound?
A: −99%

Q: And the “FLG: Efficacy of retinol/older control (%)” value [10]?
A: −76%

Q: What about the “HAS3: Efficacy of retinol/older control (%)” value [10] of the same compound?
A: +425%

Q: And the “IVL: Efficacy of retinol/older control (%)” value [10]?
A: +126%

Q: And the “KRT10: Efficacy of retinol/older control (%)” value [10]?
A: −97%

Q: And the “LOR: Efficacy of retinol/older control (%)” value [10]?
A: −95%

Q: And the “MKI67: Efficacy of retinol/older control (%)” value [10]?
A: +44%

Q: What about the “S100A7: Efficacy of retinol/older control (%)” value [10] of the same compound?
A: +1384%

Q: And the “S100A8: Efficacy of retinol/older control (%)” value [10]?
A: +23%

Q: And the “S100A9: Efficacy of retinol/older control (%)” value [10]?
A: +108%

Q: And the “SOD1: Efficacy of retinol/older control (%)” value [10]?
A: +7%

Q: What about the “TGM1: Efficacy of retinol/older control (%)” value [10] of the same compound?
A: −31%

Q: What about the “AQP3 expression (qPCR)” value ([10]; young cells control=100) of the same compound?
A: 69

Q: What about the “CD44 expression (qPCR)” value ([10]; young cells control=100) of the same compound?
A: 147

Q: What about the “CLDN1 expression (qPCR)” value ([10]; young cells control=100) of the same compound?
A: 33

Q: What about the “CXCL8 expression (qPCR)” value ([10]; young cells control=100) of the same compound?
A: 729

Q: And the “DSG expression (qPCR)” value ([10]; young cells control=100)?
A: 1

Q: What about the “FLG expression (qPCR)” value ([10]; young cells control=100) of the same compound?
A: 9

Q: And the “HAS3 expression (qPCR)” value ([10]; young cells control=100)?
A: 357

Q: What about the “IVL expression (qPCR)” value ([10]; young cells control=100) of the same compound?
A: 120

Q: What about the “KRT10 expression (qPCR)” value ([10]; young cells control=100) of the same compound?
A: 2

Q: And the “LOR expression (qPCR)” value ([10]; young cells control=100)?
A: 1

Q: What about the “MKI67 expression (qPCR)” value ([10]; young cells control=100) of the same compound?
A: 95

Q: What about the “S100A7 expression (qPCR)” value ([10]; young cells control=100) of the same compound?
A: 564

Q: What about the “S100A8 expression (qPCR)” value ([10]; young cells control=100) of the same compound?
A: 256

Q: And the “S100A9 expression (qPCR)” value ([10]; young cells control=100)?
A: 397

Q: And the “SOD1 expression (qPCR)” value ([10]; young cells control=100)?
A: 95

Q: And the “TGM1 expression (qPCR)” value ([10]; young cells control=100)?
A: 47
